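Growth conditions: 96-well plates. Treatment: test compound, 48 hours, 5 concentrations. Analysis: linear interpolation between bracketing concentrations; unreached endpoints set to highest concentration. Definition used: TGI = concentration required for complete inhibition of growth.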
How the values were obtained:
Assay in all cases: NCI tumour cell line growth inhibition, 48 h
SR leukemia = tested on: SR leukemia
CAKI-1 renal = tested on: CAKI-1 renal
NCI-H226 lung = tested on: NCI-H226 lung
HCT-116 colon = tested on: HCT-116 colon
M14 melanoma = tested on: M14 melanoma
A498 renal = tested on: A498 renal
HOP-62 NSCLC = tested on: HOP-62 NSCLC
SN12C renal = tested on: SN12C renal
HCC-2998 colon = tested on: HCC-2998 colon
LOX IMVI melanoma = tested on: LOX IMVI melanoma
UACC-62 melanoma = tested on: UACC-62 melanoma
HOP-92 NSCLC = tested on: HOP-92 NSCLC
RPMI-8226 leukemia = tested on: RPMI-8226 leukemia
LXFL 529 NSCLC = tested on: LXFL 529 NSCLC
SF-268 CNS = tested on: SF-268 CNS
SK-MEL-2 melanoma = tested on: SK-MEL-2 melanoma
HL-60(TB) leukemia = tested on: HL-60(TB) leukemia
SF-539 CNS = tested on: SF-539 CNS
IGROV1 ovarian = tested on: IGROV1 ovarian
MALME-3M melanoma = tested on: MALME-3M melanoma
M19-MEL melanoma = tested on: M19-MEL melanoma
XF 498 CNS = tested on: XF 498 CNS
SNB-75 CNS = tested on: SNB-75 CNS
COLO 205 colon = tested on: COLO 205 colon
RXF-631 renal = tested on: RXF-631 renal
SNB-78 CNS = tested on: SNB-78 CNS
DLD-1 colon = tested on: DLD-1 colon
UO-31 renal = tested on: UO-31 renal
ACHN renal = tested on: ACHN renal
SK-MEL-28 melanoma = tested on: SK-MEL-28 melanoma
SK-OV-3 ovarian = tested on: SK-OV-3 ovarian
786-0 renal = tested on: 786-0 renal
DMS 273 small cell lung = tested on: DMS 273 small cell lung
NCI-H460 lung = tested on: NCI-H460 lung
OVCAR-3 ovarian = tested on: OVCAR-3 ovarian
EKVX NSCLC = tested on: EKVX NSCLC
MOLT-4 leukemia = tested on: MOLT-4 leukemia
K-562 leukemia = tested on: K-562 leukemia
U251 CNS = tested on: U251 CNS
HOP-18 NSCLC = tested on: HOP-18 NSCLC
SK-MEL-5 melanoma = tested on: SK-MEL-5 melanoma
RXF 393 renal = tested on: RXF 393 renal
HT29 colon = tested on: HT29 colon
SW-620 colon = tested on: SW-620 colon
HCT-15 colon = tested on: HCT-15 colon
KM20L2 colon = tested on: KM20L2 colon
OVCAR-8 ovarian = tested on: OVCAR-8 ovarian
KM12 colon = tested on: KM12 colon
SNB-19 CNS = tested on: SNB-19 CNS
SF-295 CNS = tested on: SF-295 CNS
NCI-H522 lung = tested on: NCI-H522 lung
NCI-H23 lung = tested on: NCI-H23 lung
UACC-257 melanoma = tested on: UACC-257 melanoma
OVCAR-4 ovarian = tested on: OVCAR-4 ovarian
OVCAR-5 ovarian = tested on: OVCAR-5 ovarian
TK-10 renal = tested on: TK-10 renal
DMS 114 small cell lung = tested on: DMS 114 small cell lung

Work on `C[C@@H]1CC2(N=CCS2)[C@]2(O)O[C@@H]3C[C@@]4(C)[C@H](C[C@H]3O[C@@H]2O1)C[C@H]1O[C@]12[C@@H]4[C@H](O)C(=O)[C@]1(C)C(C3=CC(=O)OC3)CC[C@]21O` (stereo partly specified) yielded a TGI (SR leukemia) of 0.015 µM, a TGI (CAKI-1 renal) of 0.0265 µM and a TGI (NCI-H226 lung) of 0.0746 µM. The TGI (HCT-116 colon) was 0.0301 µM, the TGI (M14 melanoma) was 0.0497 µM and the TGI (A498 renal) was 0.0386 µM. For the same compound, the TGI (HOP-62 NSCLC) was 0.0211 µM, the TGI (SN12C renal) was 0.0202 µM and the TGI (HCC-2998 colon) was 0.0727 µM. For the same compound, the TGI (LOX IMVI melanoma) was 0.0239 µM, the TGI (UACC-62 melanoma) was 0.0511 µM and the TGI (HOP-92 NSCLC) was 0.08 µM. For the same compound, the TGI (RPMI-8226 leukemia) was 0.0578 µM, the TGI (LXFL 529 NSCLC) was 0.0166 µM and the TGI (SF-268 CNS) was 0.0146 µM. For the same compound, the TGI (SK-MEL-2 melanoma) was 0.0749 µM, the TGI (HL-60(TB) leukemia) was 0.0353 µM and the TGI (SF-539 CNS) was 0.0122 µM. The TGI (IGROV1 ovarian) was 0.159 µM, the TGI (MALME-3M melanoma) was 0.0285 µM and the TGI (M19-MEL melanoma) was 0.0784 µM. The TGI (XF 498 CNS) was 0.0336 µM, the TGI (SNB-75 CNS) was 0.0984 µM and the TGI (COLO 205 colon) was 0.0828 µM. The TGI (RXF-631 renal) was 0.102 µM, the TGI (SNB-78 CNS) was 0.0495 µM and the TGI (DLD-1 colon) was 0.0216 µM. It also gave a TGI (UO-31 renal) of 0.0755 µM, a TGI (ACHN renal) of 0.0149 µM and a TGI (SK-MEL-28 melanoma) of 0.089 µM. For the same compound, the TGI (SK-OV-3 ovarian) was 0.0778 µM, the TGI (786-0 renal) was 0.0179 µM and the TGI (DMS 273 small cell lung) was 0.0214 µM.

In the case of `N#CCc1nc2c(s1)C(=O)c1ccccc1C2=O`, the TGI (NCI-H460 lung) is reported as 47.6 µM, the TGI (OVCAR-3 ovarian) is reported as 29.3 µM and the TGI (CAKI-1 renal) is reported as 38.6 µM. It also gave a TGI (NCI-H226 lung) of 37.8 µM, a TGI (EKVX NSCLC) of 49.1 µM and a TGI (MOLT-4 leukemia) of 3.48 µM. For the same compound, the TGI (HCT-116 colon) was 27.6 µM, the TGI (M14 melanoma) was 28.5 µM and the TGI (A498 renal) was 59.1 µM. For the same compound, the TGI (K-562 leukemia) was 39.6 µM, the TGI (HOP-62 NSCLC) was 28.3 µM and the TGI (SN12C renal) was 33.5 µM. The TGI (U251 CNS) was 31.1 µM, the TGI (HCC-2998 colon) was 38 µM and the TGI (LOX IMVI melanoma) was 28.1 µM. For the same compound, the TGI (HOP-18 NSCLC) was 28.3 µM, the TGI (SK-MEL-5 melanoma) was 23.7 µM and the TGI (UACC-62 melanoma) was 26.5 µM. The TGI (HOP-92 NSCLC) was 34.4 µM, the TGI (RPMI-8226 leukemia) was 46.6 µM and the TGI (RXF 393 renal) was 49.4 µM. For the same compound, the TGI (LXFL 529 NSCLC) was 28.2 µM, the TGI (SF-268 CNS) was 32.2 µM and the TGI (SK-MEL-2 melanoma) was 35.6 µM. The TGI (HT29 colon) was 46.5 µM, the TGI (SW-620 colon) was 34.8 µM and the TGI (HCT-15 colon) was 29.9 µM. For the same compound, the TGI (KM20L2 colon) was > 100 µM, the TGI (SF-539 CNS) was 28 µM and the TGI (OVCAR-8 ovarian) was 22.6 µM. It also gave a TGI (IGROV1 ovarian) of 17.3 µM, a TGI (KM12 colon) of 36 µM and a TGI (SNB-19 CNS) of 40.7 µM. It also gave a TGI (MALME-3M melanoma) of 34.3 µM, a TGI (SF-295 CNS) of 34.5 µM and a TGI (M19-MEL melanoma) of 11.4 µM. The TGI (SNB-75 CNS) was 49.3 µM, the TGI (COLO 205 colon) was 33.4 µM and the TGI (NCI-H522 lung) was 29.9 µM. It also gave a TGI (RXF-631 renal) of 42.7 µM, a TGI (NCI-H23 lung) of 36.4 µM and a TGI (SNB-78 CNS) of 47.7 µM. It also gave a TGI (UO-31 renal) of 29.3 µM, a TGI (UACC-257 melanoma) of 28.5 µM and a TGI (ACHN renal) of 27.4 µM. The TGI (OVCAR-4 ovarian) was 31.1 µM, the TGI (OVCAR-5 ovarian) was 37.2 µM and the TGI (SK-MEL-28 melanoma) was 32.8 µM. The TGI (TK-10 renal) was 36.5 µM, the TGI (SK-OV-3 ovarian) was > 100 µM and the TGI (DMS 114 small cell lung) was 20.1 µM. The TGI (786-0 renal) was 30.1 µM and the TGI (DMS 273 small cell lung) was 29.9 µM.

— PubChem BioAssay (NCI)
